# Laboratory results as given in patent US10301288B2, “Kinase inhibitors” (Topivert Pharma Limited, priority 2013, dated 2019).
# pIC50: −log10 of the molar value.
# How the values were obtained:
# [1] = target: p38 MAPKα (Homo sapiens (Human), UniProt Q16539); assay: p38 MAPKα enzyme inhibition (FRET, Method 2); assay type: biochemical
# Protocol: (§1) The enzyme inhibitory activities of compounds disclosed herein are determined by FRET using synthetic peptides labelled with both donor and acceptor fluorophores (Z-LYTE, Invitrogen Ltd., Paisley, UK).
# The inhibitory activities of test compounds against the p38 MAPKα isoform (MAPK14: Invitrogen), are evaluated indirectly by determining the level of activation/phosphorylation of the down-stream molecule, MAPKAP-K2. The p38 MAPKα protein (80 ng/mL, 2.5 μL) is mixed with the test compound (2.5 μL of either 4 μg/mL, 0.4 μg/mL, 0.04 μg/mL or 0.004 μg/mL) for 2 hr at RT. […] The mixture is incubated for 1 hr at RT. Development reagent (protease, 5 μL) is added for 1 hr prior to detection in a fluorescence microplate reader (Varioskan® Flash, ThermoFisher Scientific).
# (§2) In all cases, the site-specific protease cleaves non-phosphorylated peptide only and eliminates the FRET signal. Phosphorylation levels of each reaction are calculated using the ratio of coumarin emission (donor) over fluorescein emission (acceptor), for which high ratios indicate high phosphorylation and low ratios indicate low phosphorylation levels.
# [2] = target: c-Src (Homo sapiens (Human), UniProt P12931); assay: c-Src enzyme inhibition (FRET); assay type: biochemical
# Protocol: as §1
# (§3) The inhibitory activities of compounds of the invention against c-Src and Syk enzymes (Invitrogen), are evaluated in a similar fashion to that described hereinabove. The relevant enzyme (3000 ng/mL or 2000 ng/mL respectively, 2.5 μL) is incubated with the test compound (either 4 μg/mL, 0.4 μg/mL, 0.04 μg/mL, or 0.004 μg/mL, 2.5 μL each) for 2 hr at RT. The FRET peptides (8 μM. 2.5 μL), and appropriate ATP solutions (2.5 μL, 800 μM for c-Src, and 60 μM ATP for Syk) are then added to the enzymes/compound mixtures and incubated for 1 hr. Development reagent (protease, 5 μL) is added for 1 hr prior to detection in a fluorescence microplate reader (Varioskan® Flash, ThermoFisher Scientific).
# as §2
# [3] = target: Syk (Homo sapiens (Human), UniProt P43405); assay: Syk enzyme inhibition (FRET); assay type: biochemical
# Protocol: as §1, §3, §2
# [4] = target: GSK3α (Homo sapiens (Human), UniProt P49840); assay: GSK 3α enzyme inhibition (FRET, Method 2); assay type: biochemical
# Protocol: as §1
# The inhibitory activities of compounds of the invention against the GSK 3α enzyme isoform (Invitrogen), are evaluated by determining the level of activation/phosphorylation of the target peptide. The GSK3-α protein (500 ng/mL, 2.5 μL) is mixed with the test compound (2.5 μL at either 4 μg/mL, 0.4 μg/mL, 0.04 μg/mL, or 0.004 μg/mL) for 2 hr at RT. The FRET peptide (8 μM, 2.5 μL), which is a phosphorylation target for GSK3α, and ATP (40 μM, 2.5 μL) are then added to the enzyme/compound mixture and the resulting mixture incubated for 1 hr. Development reagent (protease, 5 μL) is added for 1 hr prior to detection in a fluorescence microplate reader (Varioskan® Flash, ThermoFisher Scientific).
# as §2
# [5] = system: PBMCs; assay: (b) LPS-induced TNFα/IL-8 release in PBMC cells; assay type: cell-based; conditions: Homo sapiens, read-out: IC50 for Inhibition of Cytokine Release, IL-8
# Protocol: Peripheral blood mononuclear cells (PBMCs) from healthy subjects are separated from whole blood using a density gradient (Lymphoprep, Axis-Shield Healthcare). The PBMCs are seeded in 96 well plates and treated with compounds at the desired concentration for 2 hours before addition of 1 ng/ml LPS (Escherichia Coli 0111:B4 from Sigma Aldrich) for 24 hours under normal tissue culture conditions (37° C., 5% CO2). The supernatant is harvested for determination of IL-8 and TNFα concentrations by sandwich ELISA (Duo-set, R&D systems) and read on the fluorescence microplate reader (Varioskan® Flash, ThermoFisher Scientific).
# [6] = system: PBMCs; assay: (c) IL-2 and IFN gamma release in CD3/CD28 stimulated PBMC cells; assay type: cell-based; conditions: Homo sapiens
# Protocol: PBMCs from healthy subjects are separated from whole blood using a density gradient (Lymphoprep, Axis-Shield Healthcare). Cells are added to a 96 well plate pre-coated with a mixture of CD3/CD28 monoclonal antibodies (0.3 ug/ml eBioscience and 3 ug/ml BD Pharmingen respectively). Compound at the desired concentration is then added to the wells and the plate left for 3 days under normal tissue culture conditions. […] The IC50 is determined from the dose response curve.
# [7] = system: PBMCs; assay: (i) Cell mitosis assay in PBMCs; assay type: cell-based; conditions: Homo sapiens, PBMC, 5 μg/mL
# Protocol: PBMCs from healthy subjects are separated from whole blood (Quintiles, London, UK) using a density gradient (Histopaque®-1077, Sigma-Aldrich, Poole, UK). The PBMCs (3 million cells per sample) are subsequently treated with 2% PHA (Sigma-Aldrich, Poole, UK) for 48 hr, followed by a 20 hr exposure to varying concentrations of test compounds. At 2 hr before collection, PBMCs are treated with demecolcine (0.1 μg/mL; Invitrogen, Paisley, UK) to arrest cells in metaphase. […] Fluorescence is observed using an ATTUNE flow cytometer (Invitrogen, Paisley, UK), gating for lymphocytes.
# [8] = system: β-catenin; assay: (m) Accumulation of β catenin in d-U937 cells; assay type: cell-based, human; conditions: Reference Compound at 1 μg/mL defined as 100%
# Protocol: U937 cells, a human monocytic cell line, are differentiated into macrophage-type cells by incubation with PMA; (100 ng/mL) for between 48 to 72 hr. The cells are then incubated with either final concentrations of test compound or vehicle for 18 hr. The induction of β-catenin by the test compounds is stopped by replacing the media with 4% formaldehyde solution. Endogenous peroxide activity is neutralised by incubating with quenching buffer (100 μL, 0.1% sodium azide, 1% H2O2 in PBS with 0.05% Tween-20) for 20 min. The cells are washed with washing buffer (200 μL; PBS containing 0.05% Tween-20) and incubated with blocking solution (200 μL; 5% milk in PBS) for 1 hr, re-washed with washing buffer (200 μL) and then incubated overnight with anti-β-catenin antibody solution (50 μL) in 1% BSA/PBS (BD, Oxford, UK).
# After washing with washing buffer (3×200 μL; PBS containing 0.05% Tween-20), cells are incubated with an HRP-conjugated secondary antibody solution (100 μL) in 1% BSA/PBS (Dako, Cambridge, UK) and the resultant signal is determined colourimetrically (OD: 450 nm with a reference wavelength of 655 nm) using TMB substrate (50 μL; R&D Systems, Abingdon, UK). This reaction is stopped by addition of 1N H2SO4 solution (50 μL). Cells are then washed with washing buffer and 2% crystal violet solution (50 μL) is applied for 30 min. After washing with washing buffer (3×200 μL), 1% SDS (100 μL) is added to each well and the plates are shaken lightly for 1 hr prior to measuring the absorbance at 595 nm (Varioskan® Flash, Thermo-Fisher Scientific).
# The measured OD450-655 readings are corrected for cell number by dividing the OD450-655 by the OD595 readings.
# [9] = system: HT29 cells; assay: (d) IL-1β-induced IL-8 release in HT29 cells; assay type: cell-based; conditions: Homo sapiens, HT-29, read-out: IC50 for Inhibition of Cytokine Release, IL-8
# Protocol: HT29 cells, a human colon adenocarcinoma cell line, are plated in a 96 well plate (24 hrs) and pre-treated with compounds at the desired concentration for 2 hours before addition of 5 ng/ml of IL-1β (Abeam) for 24 hours. Supernatants are harvested for IL-8 quantification by Sandwich ELISA (Duo-set, R&D System). The IC50 is determined from the dose response curve.
# [10] = read-out: IC50 for Inhibition of Cytokine Release, IFNγ
# [11] = read-out: IC50 for Inhibition of Cytokine Release, IL-2
# Sequence of p38 MAPKα (Q16539 whole entry): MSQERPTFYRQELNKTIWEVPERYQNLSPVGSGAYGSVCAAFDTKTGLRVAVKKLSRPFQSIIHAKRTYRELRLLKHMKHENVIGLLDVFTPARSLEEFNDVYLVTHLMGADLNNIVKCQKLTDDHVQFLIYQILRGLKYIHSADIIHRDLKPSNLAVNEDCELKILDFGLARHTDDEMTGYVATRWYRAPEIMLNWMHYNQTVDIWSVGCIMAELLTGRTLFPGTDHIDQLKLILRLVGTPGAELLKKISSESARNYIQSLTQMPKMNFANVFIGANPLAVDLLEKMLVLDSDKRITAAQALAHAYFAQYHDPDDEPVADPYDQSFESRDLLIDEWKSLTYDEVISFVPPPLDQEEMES
# Sequence of GSK3α (P49840 whole entry): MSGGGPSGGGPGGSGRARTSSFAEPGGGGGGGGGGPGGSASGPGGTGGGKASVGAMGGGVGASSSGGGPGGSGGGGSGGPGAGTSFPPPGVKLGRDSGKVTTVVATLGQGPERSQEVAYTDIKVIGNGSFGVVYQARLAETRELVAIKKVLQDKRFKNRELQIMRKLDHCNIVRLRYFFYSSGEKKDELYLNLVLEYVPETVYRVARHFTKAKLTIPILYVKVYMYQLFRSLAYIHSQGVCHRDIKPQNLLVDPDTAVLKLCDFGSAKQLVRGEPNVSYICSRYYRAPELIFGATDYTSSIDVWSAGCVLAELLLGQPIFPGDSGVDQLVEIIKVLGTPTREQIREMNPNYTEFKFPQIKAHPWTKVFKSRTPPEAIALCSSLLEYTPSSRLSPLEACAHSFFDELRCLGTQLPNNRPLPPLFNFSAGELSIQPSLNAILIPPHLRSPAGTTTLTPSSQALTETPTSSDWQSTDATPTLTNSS
# Sequence of c-Src (P12931 whole entry, looked up): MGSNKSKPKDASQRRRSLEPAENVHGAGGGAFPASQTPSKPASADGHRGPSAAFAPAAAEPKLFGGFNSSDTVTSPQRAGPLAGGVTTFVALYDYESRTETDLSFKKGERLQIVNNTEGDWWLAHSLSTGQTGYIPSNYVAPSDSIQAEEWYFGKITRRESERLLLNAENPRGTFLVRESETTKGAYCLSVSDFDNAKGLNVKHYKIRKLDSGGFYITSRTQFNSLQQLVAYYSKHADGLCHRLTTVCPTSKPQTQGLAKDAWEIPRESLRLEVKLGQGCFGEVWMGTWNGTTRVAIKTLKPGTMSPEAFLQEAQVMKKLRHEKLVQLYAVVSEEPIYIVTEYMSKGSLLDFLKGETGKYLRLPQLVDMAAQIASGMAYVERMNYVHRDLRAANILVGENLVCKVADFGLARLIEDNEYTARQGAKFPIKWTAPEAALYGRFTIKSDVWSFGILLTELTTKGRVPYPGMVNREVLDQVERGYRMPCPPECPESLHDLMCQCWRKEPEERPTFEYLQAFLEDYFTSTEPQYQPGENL
Compound,pIC50 [1],pIC50 [2],pIC50 [3],pIC50 [4],pIC50 [9],pIC50 [5],"pIC50 [6, 10]","pIC50 [6, 11]",inhibition at 5 µg/mL [7] [%],% β-catenin induction ([8]; 1 μg/mL) [%],% β-catenin induction ([8]; 5 μg/mL) [%],% β-catenin induction ([8]; 10 μg/mL) [%]
"C#Cc1cc(Nc2nccc(Oc3ccc(NC(=O)Nc4cc(C(C)(C)C)nn4-c4ccc(OC)cc4)c4ccccc34)n2)cc(C(=O)NCCOCCOC)c1 [Example 5, 3-((4-((4-(3-(3-(tert-Butyl)-1-(4-methoxyphenyl)-1H-pyrazol-5-yl)ureido)-naphthalen-1-yl)oxy)pyrimidin-2-yl)amino)-5-ethynyl-N-(2-(2-methoxyethoxy)ethyl)-benzamide]",7.48,7.89,7.47,4.89,,8.92,8.77,7.28,10.4,8,2,3
"C#Cc1cc(Nc2nccc(Oc3ccc(NC(=O)Nc4cc(C(C)(C)C)nn4-c4ccc(OC)cc4)c4ccccc34)n2)cc(C(=O)NCCOCCOCCOC)c1 [Example 3, 3-((4-((4-(3-(3-(tert-Butyl)-1-(4-methoxyphenyl)-1H-pyrazol-5-yl)ureido)-naphthalen-1-yl)oxy)pyrimidin-2-yl)amino)-5-ethynyl-N-(2-(2-(2-methoxyethoxy)-ethoxy)ethyl)benzamide]",7.41,7.85,7.52,4.92,,8.92,8.70,8.12,2.1,1,6,6
"[2H]c1c([2H])c(C([2H])([2H])[2H])c([2H])c([2H])c1-n1nc(C(C)(C)C)cc1NC(=O)Nc1ccc(Oc2ccnc(Nc3cc(C#C)cc(C(=O)NCCOCCOCCOC)c3)n2)c2ccccc12 [Example 6, 3-((4-((4-(3-(3-(tert-Butyl)-1-(2,3,5,6-tetradeutero-4-(trideuteromethyl)-phenyl)-1H-pyrazol-5-yl)ureido)naphthalen-1-yl)oxy)pyrimidin-2-yl)amino)-5-ethynyl-N-(2-(2-(2-methoxyethoxy)ethoxy)ethyl)benzamide]",,7.77,7.02,,8.62,8.64,8.54,6.91,10.2,3,3,−1
"C#Cc1cc(Nc2nccc(Oc3ccc(NC(=O)Nc4cc(C(C)C)nn4-c4ccc(C)cc4)c4ccccc34)n2)cc(C(=O)NCCOCCOCCOC)c1 [Example 1, 3-Ethynyl-5-((4-((4-(3-(3-isopropyl-1-(p-tolyl)-1H-pyrazol-5-yl)ureido)-naphthalen-1-yl)oxy)pyrimidin-2-yl)amino)-N-(2-(2-(2-methoxyethoxy)ethoxy)ethyl)-benzamide]",7.60,7.52,6.43,4.89,,8.80,,,3.6,−14,−13,−17

# Second part, led by results:
pIC50 [1],pIC50 [2],pIC50 [3],pIC50 [4],pIC50 [9],Compound,pIC50 [5],"pIC50 [6, 10]","pIC50 [6, 11]",inhibition at 5 µg/mL [7] [%],% β-catenin induction ([8]; 1 μg/mL) [%],% β-catenin induction ([8]; 5 μg/mL) [%],% β-catenin induction ([8]; 10 μg/mL) [%]
6.96,7.60,7.32,4.92,8.32,"COCCOCCOCCNC(=O)c1cc(Nc2cc(Oc3ccc(NC(=O)Nc4cc(C(C)(C)C)nn4-c4ccc(N(C)C)cc4)c4ccccc34)ccn2)cc(OC)c1 [Example 10, 3-((4-((4-(3-(3-(tert-Butyl)-1-(4-(dimethylamino)phenyl)-1H-pyrazol-5-yl)ureido)-naphthalen-1-yl)oxy)pyridin-2-yl)amino)-5-methoxy-N-(2-(2-(2-methoxyethoxy)-ethoxy)ethyl)benzamide]",8.48,8.57,,,4,2,2
7.01,7.82,7.46,4.92,8.46,"C#Cc1cc(Nc2nccc(Oc3ccc(NC(=O)Nc4cc(C(C)(C)C)nn4-c4ccc(N(C)C)cc4)c4ccccc34)n2)cc(C(=O)NCCOCCOCCOC)c1 [Example 9, 3-((4-((4-(3-(3-(tert-Butyl)-1-(4-(dimethylamino)phenyl)-1H-pyrazol-5-yl)ureido)-naphthalen-1-yl)oxy)pyrimidin-2-yl)amino)-5-ethynyl-N-(2-(2-(2-methoxyethoxy)-ethoxy)ethyl)benzamide]",8.54,8.08,,,1,2,4
